Values of other authors as cited in patent publication US9291622B2, “Complement assays and uses thereof” (Apellis Pharmaceuticals, Inc., priority 2009, dated 2016).
[ ]: non-standard residue; d: D form. Trp(5-F) = N[C@@H](Cc1c[nH]c2ccc(F)cc12)C(=O)O; Trp(5-Me) = Cc1ccc2[nH]cc(C[C@H](N)C(=O)O)c2c1; Trp(6-F) = N[C@@H](Cc1c[nH]c2cc(F)ccc12)C(=O)O; Bpa = N[C@@H](Cc1ccc(C(=O)c2ccccc2)cc1)C(=O)O; 1Nal = N[C@@H](Cc1cccc2ccccc12)C(=O)O; 2Nal = N[C@@H](Cc1ccc2ccccc2c1)C(=O)O; Igl = N[C@H](C(=O)O)C1Cc2ccccc2C1; Dht = dihydrotryptophan

test system: complement activation; conditions: fold activity relative to compstatin (H-ICVVQDWGHHRCT-CONH2)

| Substance | Activity over compstatin [× more] |
| --- | --- |
| Ac-ICV(2-Igl)QDWGAHRCT-COOH (Ac-ICV[Igl]QDWGAHRCT-OH; cysteine pairing not given here) [Ac-V42Igl/H9A —OH] | 37 |
| Ac-ICV(5fW)QD(5fW)GAHRCT-CONH2 (Ac-ICV[Trp(5-F)]QD[Trp(5-F)]GAHRCT-NH2; cysteine pairing not given here) [Ac-V4(5fW)/W7(5fW)/H9A] | 161 |
| Ac-ICVDhtQDWGAHRCT-COOH (Ac-ICV[Dht]QDWGAHRCT-OH; cysteine pairing not given here) [Ac-V4Dht/H9A —OH] | 5 |
| Ac-ICVYQDWGAHRCT-CONH2 [Ac-V4Y/H9A] | 14 |
| Ac-ICV(2-Nal)QDWGAHRCT-COOH (Ac-ICV[2Nal]QDWGAHRCT-OH; cysteine pairing not given here) [Ac V4(2-Nal)/H9A —OH] | 38 |
| Ac-ICV(1-Nal)QDWGAHRCT-COOH (Ac-ICV[1Nal]QDWGAHRCT-OH; cysteine pairing not given here) [Ac V4(1-Nal)/H9A —OH] | 30 |
| Ac-ICV(5-methyl-W)QDWGAHRCT-CONH2 (Ac-ICV[Trp(5-Me)]QDWGAHRCT-NH2; cysteine pairing not given here) [Ac-V4(5-MeW)/H9A] | 67 |
| H-GICV(6fW)QD(6fW)GAHRCTN-COOH (H-GICV[Trp(6-F)]QD[Trp(6-F)]GAHRCTN-OH; cysteine pairing not given here) [+G/V4(6fW)/W7(6fW)H9A +N —OH] | 126 |
| Ac-ICVWQDWGAHRCT-CONH2 (Ac-ICVWQDWGAHRCT-NH2; cysteine pairing not given here) [Ac-V4W/H9A] | 45 |
| Ac-ICVWQD(5fW)GAHRCT-CONH2 (Ac-ICVWQD[Trp(5-F)]GAHRCT-NH2; cysteine pairing not given here) [Ac-V4W/W7(5fW)/H9A] | 121 |
| Ac-ICV(2-Nal)QDWGAHRCT-CONH2 (Ac-ICV[2Nal]QDWGAHRCT-NH2; cysteine pairing not given here) [Ac-V4(2-Nal)/H9A] | 99 |
| Ac-ICVVQDWGHHRCT-CONH2 [Ac-compstatin] | 3 |
| Ac-ICV(5fW)QDWGAHRCT-CONH2 (Ac-ICV[Trp(5-F)]QDWGAHRCT-NH2; cysteine pairing not given here) [Ac-V4(5fW)/H9A] | 31 |
| Ac-ICVWQDWGAHRCdT-COOH [Ac-V4W/H9A/T13dT —OH] | 55 |
| Ac-ICV(2-Igl)QDWGAHRCT-CONH2 (Ac-ICV[Igl]QDWGAHRCT-NH2; cysteine pairing not given here) [Ac-V42Igl/H9A] | 39 |
| Ac-ICV(Bpa)QDWGAHRCT-COOH (Ac-ICV[Bpa]QDWGAHRCT-OH; cysteine pairing not given here) [Ac-V4(Bpa)/H9A —OH] | 49 |
| Ac-ICV(Bpa)QDWGAHRCT-CONH2 (Ac-ICV[Bpa]QDWGAHRCT-NH2; cysteine pairing not given here) [Ac-V4(Bpa)/H9A] | 86 |
